According to the NIST ThermoML archive (doi:10.1016/j.fluid.2016.02.031):
± gives the expanded uncertainty stated by the source.

Assay: xn = mol fraction of the nth substance listed
Conditions: 100 kPa, Liquid; for viscosity: Concentric cylinders viscometry; for mass density: Vibrating tube method

OCCCO [propan-1,3-diol] + CCC(C)=O
Conditions	mass density, 313.15 K [kg/m3]	mass density, 318.15 K [kg/m3]	mass density, 323.15 K [kg/m3]	mass density, 328.15 K [kg/m3]	mass density, 333.15 K [kg/m3]	viscosity, 313.15 K [mPa·s]	viscosity, 318.15 K [mPa·s]	viscosity, 323.15 K [mPa·s]	viscosity, 328.15 K [mPa·s]	viscosity, 333.15 K [mPa·s]
x1 = 0.1052	808.832 ± 0.21	803.661 ± 0.21	798.453 ± 0.21	793.206 ± 0.21	787.917 ± 0.21	0.4382 ± 0.0066	0.4141 ± 0.0064	0.3908 ± 0.0062	0.3682 ± 0.0059	0.3461 ± 0.0058
x1 = 0.2004	831.418 ± 0.21	826.427 ± 0.21	821.409 ± 0.21	816.363 ± 0.21	811.298 ± 0.21	0.5847 ± 0.008	0.548 ± 0.0076	0.5165 ± 0.0073	0.484 ± 0.007	0.4456 ± 0.0066
x1 = 0.3002	855.978 ± 0.2	851.191 ± 0.2	846.386 ± 0.2	841.54 ± 0.2	836.659 ± 0.21	0.8163 ± 0.01	0.7557 ± 0.0097	0.7008 ± 0.0091	0.6507 ± 0.0086	0.6058 ± 0.0082
x1 = 0.4003	881.838 ± 0.2	877.271 ± 0.2	872.674 ± 0.2	868.041 ± 0.2	863.375 ± 0.2	1.237 ± 0.015	1.127 ± 0.013	1.03 ± 0.013	0.9438 ± 0.012	0.8671 ± 0.011
x1 = 0.4999	908.015 ± 0.2	903.664 ± 0.2	899.282 ± 0.2	894.87 ± 0.2	890.43 ± 0.2	1.909 ± 0.022	1.711 ± 0.02	1.542 ± 0.018	1.393 ± 0.016	1.271 ± 0.015
x1 = 0.5992	934.073 ± 0.19	929.93 ± 0.19	925.759 ± 0.19	921.56 ± 0.19	917.332 ± 0.2	3.025 ± 0.034	2.671 ± 0.03	2.372 ± 0.027	2.121 ± 0.024	1.911 ± 0.022
x1 = 0.6992	960.613 ± 0.19	956.69 ± 0.19	952.744 ± 0.19	948.774 ± 0.19	944.777 ± 0.19	4.879 ± 0.053	4.237 ± 0.047	3.702 ± 0.041	3.257 ± 0.036	2.894 ± 0.032
x1 = 0.7989	985.317 ± 0.18	981.556 ± 0.19	977.808 ± 0.19	974.119 ± 0.19	970.698 ± 0.19	8.064 ± 0.088	6.885 ± 0.075	5.939 ± 0.065	5.165 ± 0.056	4.581 ± 0.05
x1 = 0.8998	1011.06 ± 0.19	1007.51 ± 0.19	1004.01 ± 0.19	1000.59 ± 0.18	997.503 ± 0.18	13.49 ± 0.15	11.33 ± 0.12	9.603 ± 0.1	8.217 ± 0.089	7.128 ± 0.077
x1 = 1	1040.35 ± 0.18	1037.18 ± 0.18	1033.98 ± 0.18	1030.77 ± 0.18	1027.53 ± 0.18	22.22 ± 0.24	18.35 ± 0.2	15.29 ± 0.17	12.84 ± 0.14	10.96 ± 0.12
